Test results taken from patent US4428806A, “Process for producing brominated 1,3-dioxolen-2-ones” (priority 1981, dated 1984).
Where a name gives a salt, the structure may show the parent alone. Read-outs that look alike come from different tables or passages of the source.

Tests used:
[1] = Conversion to ampicillin in 40% mouse blood (incubation and bioautography); type: in vitro ADME
Description: The resulting ampicillin ester hydrochloride was incubated at 37° C. for 10 minutes in 40% mouse blood, and then bioautographed.
The resulting ampicillin (5-phenyl-2-oxo-1,3-dioxolen-4-yl)methyl ester hydrochloride was incubated at 37° C. for […] in 40% mouse blood, and then bioautographed.
The product was incubated and bioautographed in the same way as in Referential Example 1.

[2] = Blood level in oral administration (ampicillin concentration in serum, bioassay); type: in vivo, mice (ddY-strain); conditions: mice; for Ratio of the concentration of ampicillin in the serum: 50 mg/kg as ampicillin, ratio to ampicillin trihydrate (C = 1.0)
Description: Each of the test compounds (as an aqueous solution having a concentration of 5 mg/ml as ampicillin) was orally administered in a dose of 50 mg/kg as ampicillin to four week old mice (ddY-strain, body weight about 20 g, five per group) which were caused to fast overnight. The blood was taken from the mice periodically, and the concentration of ampicillin in the serum was measured by a bioassay method. The blood Ampicillin level ratio was calculated from the following equation. [formula]

in vitro [3] = type: in vitro ADME; conditions: pH 1.2
Description: (§1) 1. Test compounds: A and B above
Each of the test compounds was dissolved in an acidic medium (pH 1.2) consisting of 2.0 g of sodium chloride, 24 ml of 10% hydrochloric acid, 3.2 g of pepsin and 1000 ml of water. The solution was shaken at 37° C., and sampled periodically. The sample was subjected to high-performance liquid chromatography using a reversed phase partition column, and the degree of hydrolysis of each of the test compounds was determined from a decrease in its peak height.

in vitro [4] = type: in vitro ADME; conditions: pH 7.5
Description: as §1
Each of the test compounds was dissolved in a basic medium (pH 7.5) consisting of 35.8 g of disodium phosphate, 6.0 ml of 10% hydrochloric acid and 2.8 g of pancreatin and 1000 ml of water, and the degree of hydrolysis of each test compound was determined as in the case of the acidic medium.

Question: With `CC1(C)S[C@@H]2[C@H](NC(=O)[C@H](N)c3ccccc3)C(=O)N2[C@H]1C(=O)OCc1oc(=O)oc1-c1ccccc1` [Referential Example 2, ampicillin (5-phenyl-2-oxo-1,3-dioxolen-4-yl)methyl ester hydrochloride] as the compound, how does the “Conversion to ampicillin in mouse blood” value [1] read?
Answer: completely changed to ampicillin

Question: For `CC1(C)S[C@@H]2[C@H](NC(=O)[C@H](N)c3ccccc3)C(=O)N2[C@H]1C(=O)OC1CCCc2oc(=O)oc21` (stereo partly drawn) [Referential Example 1, ampicillin (2,3-carbonyldioxy-2-cyclohexenyl) ester hydrochloride], which “Conversion to ampicillin in mouse blood” value [1] is on record?
Answer: changed completely to ampicillin

Question: For `Cc1oc(=O)oc1COC(=O)[C@@H]1N2C(=O)[C@@H](NC(=O)[C@H](N)c3ccccc3)[C@H]2SC1(C)C` [A, Ampicillin (5-methyl-2-oxo-1,3-dioxolen-4-yl) methyl ester hydrochloride], which “Absorption, conversion to ampicillin and blood level (in words)” value ([2]; compared with C and B) is on record?
Answer: easily absorbed and converted back to the original ampicillin in vivo, and shows a high blood level over a longer period of time than ampicillin (C) and the known ampicillin ester (B)

Question: What about the metabolised at 1 h (in vitro [3]; acidic medium with pepsin) of the same compound?
Answer: 7%

Question: And the metabolised at 4 h (in vitro [3]; acidic medium with pepsin)?
Answer: 20%

Question: What about the “Stability in the acidic medium (in words)” value (in vitro [3]) of the same compound?
Answer: much more stable than the known control compound (B)

Question: And the metabolised at 1 h (in vitro [4]; basic medium with pancreatin)?
Answer: 80%

Question: And the “Stability in the basic medium (in words)” value (in vitro [4])?
Answer: much more stable than the known control compound (B)

Question: And the “Conversion to ampicillin in mouse blood” value ([1]; 40% mouse blood, 37° C., 10 minutes)?
Answer: completely changed to ampicillin

Question: For `CC1(C)S[C@@H]2[C@H](NC(=O)[C@H](N)c3ccccc3)C(=O)N2[C@H]1C(=O)O` [C, Ampicillin trihydrate], which “Ratio of the concentration of ampicillin in the serum” value (shortened to “Ratio”) ([2]; 15 min) is on record?
Answer: 1.0

Question: And the “Ratio” value ([2]; 30 min)?
Answer: 1.0

Question: And the “Ratio” value ([2]; 60 min)?
Answer: 1.0

Question: What about the “Ratio” value ([2]; 90 min) of the same compound?
Answer: 1.0

Question: What about the “Ratio” value ([2]; 120 min) of the same compound?
Answer: 1.0

Question: And the “Ratio” value ([2]; 180 min)?
Answer: 1.0

Question: With `CC1(C)S[C@@H]2[C@H](NC(=O)[C@H](N)c3ccccc3)C(=O)N2[C@H]1C(=O)OC1OC(=O)c2ccccc21` (stereo partly drawn) [B, Ampicillin phthalidyl ester hydrochloride] as the compound, how does the metabolised at 20 h (in vitro [3]; acidic medium with pepsin) read?
Answer: 100%

Question: What about the metabolised at 20 min (in vitro [4]; basic medium with pancreatin) of the same compound?
Answer: 90%

Question: What about the metabolised at 1 h (in vitro [4]; basic medium with pancreatin) of the same compound?
Answer: 100%
